US20250332183A1, “COMPOSITIONS AND METHODS FOR THE STIMULATION OF INTERMEDIATE MACROPHAGES AND TREATMENTS THEREWITH” (priority 2024, published 2025)
Entries after “also recorded” stand apart in the source; their conditions may differ. Like-named read-outs stand apart in the source and are kept apart here.

Legend:
[1] = Plasma pharmacokinetics of AVR-48 after iv dosing in preterm lambs; format: in vivo, lamb
Protocol: Formulation and dosing of AVR-48. AVR-48 (3 mg/mL) was formulated in 0.9% sterile saline and filtered through a 0.2-micron syringe filter into 10 mL serum vials ready for dosing. The efficacy dose was determined in a pilot study by stepwise escalating the AVR-48 dose concentrations. […] The vehicle control groups received 0.9% sterile saline every 12 hours (h).
Pharmacokinetic study. The pharmacokinetics (PK) of AVR-48 were determined using plasma from the PT lambs following twice daily IV infusion (10 min) of AVR-48 every 12 h for 7 days. Tested doses were 0 (n=2), 0.1 (n=1), 0.3 (n=1), 1.0 (n=2), 3.0 (n=3), and 9 (n=1) mg/kg. PK evaluation for AVR-48 was only performed for DOL1 (12 time points between 0 and 12 h after the initial dose; volume of plasma samples through DOL2-7 was inadequate for PK evaluation). Quality-controlled plasma bioanalytical data were transferred from the Bioanalytical group to the PK Scientist of the Biopharmaceutics Department of Pharmascience Inc. Samples were analyzed, using Phoenix WinNonlin software, version 8.1 (Certara, USA), using a previously standardized HPLC/LC/MS method.

[2] = tested on: preterm lamb model of BPD; experiment: Lung histopathology and quantitative histology of lamb lungs; format: in vivo; conditions: for radial alveolar count (RAC) / distal airspace wall thickness / secondary septal volume density: vs vehicle
Protocol: Terminal tissue collection. The inventors followed the methods the developed for terminal tissue collection.^14,17,26-28 Briefly, at the end of the early-stage study (DOL10) or late-stage study (DOL90 for FPT lambs; DOL60 for term reference lambs), the lambs were given ketamine (10-20 mg/Kg, intramuscularly) followed by face mask inhalation anesthesia with 1.0-2.5% isoflurane with O2. Lambs were intubated and ventilated with a tidal volume of 5-7 mL/kg, and given heparin (1000 U, iv). The lambs were given Beuthanasia solution (0.25 mL/Kg, iv; Intervet Inc., Madison, NJ) followed by potassium chloride (10 mEq, iv; Hospira, Lake Forest, IL).
For morphological analyses, the entire left lung was insufflated with formalin and sampled by systematic, uniform, random methods for quantitative histology.^29 Morphometric and stereologic methods quantified radial alveolar count, secondary septal volume density, and thickness of distal airspace walls.^27 Alveolar capillary growth was quantified by a combination of immunohistochemistry to identify endothelial cells in lung tissue sections and quantitative histology.^27 For capillary surface density measurement, a recombinant anti-CD-34 antibody was used (ab81289, Abcam; Waltham, MA) for the capillary endothelial cell marker. Negative immunostain controls were omission of the primary antibody, omission of the secondary antibody, and substitution of the primary antibody with a species-matched, irrelevant antibody. Epithelium lining the air spaces was counterstained blue. The inventors used a computer-assisted true-color imaging system (Bioquant Life Science, Nashville, TN) to quantify the surface density of alveolar capillaries and the overlying epithelium.

CD163 scavenger receptor = biological target: T1, CD163 scavenger receptor (Homo sapiens, UniProt Q86VB7); experiment: Binding of AVR-48 to CBMC monocytes and lymphocytes by flow cytometry
T1 construct: endogenous in cells; host or cells: human cord blood mononuclear cells (monocytes and lymphocytes)
Source text: N=3 *p≤0.05, **p≤0.01, ***p≤0.001, **** p≤0.0001. Two-way ANOVA was used for statistical analysis.

mice = experiment: Mouse model of influenza peptide vaccination; format: in vivo; conditions: AVR-48 alone or with Flu-A peptide, vs MPLA
Protocol: Study design: N=4/per group ([…], 6-7 months old). Group-1: (FluA) 1st dose; No 2nd dose; Group-2: (FluA) 1st dose; (FluA+MPLA) 2nd dose; Group 3: AVR-48 1st dose; No 2nd dose; and Group 4: Flu-A 1st dose; Flu-A+AVR-48 2nd dose.
Outcome measures: immune cell quantification (FACS) in the spleen, and IgG in serum (ELISA).
In vivo study: In one study, C57Bl/6J mice (n=4/group) were dosed intramuscularly (IM) with either complete Freund's adjuvant (CFA) or incomplete Freund's adjuvant (IFA) along with AVR-48 for a 28-day study using a prime-boost-boost regimen. In the second study, mice were dosed with MPLA and Flu-peptide using only the priming dose regimen (no booster). Splenic immune cells and plasma immunoglobin concentrations were assessed at day 28.

[3] = 3.00 mg/kg bid iv, Day 1, 0 to 12 hr post dose, lamb plasma
[4] = 3.00 mg/kg bid iv, Day 1, lamb plasma

T1 sequence (Q86VB7 42-1156): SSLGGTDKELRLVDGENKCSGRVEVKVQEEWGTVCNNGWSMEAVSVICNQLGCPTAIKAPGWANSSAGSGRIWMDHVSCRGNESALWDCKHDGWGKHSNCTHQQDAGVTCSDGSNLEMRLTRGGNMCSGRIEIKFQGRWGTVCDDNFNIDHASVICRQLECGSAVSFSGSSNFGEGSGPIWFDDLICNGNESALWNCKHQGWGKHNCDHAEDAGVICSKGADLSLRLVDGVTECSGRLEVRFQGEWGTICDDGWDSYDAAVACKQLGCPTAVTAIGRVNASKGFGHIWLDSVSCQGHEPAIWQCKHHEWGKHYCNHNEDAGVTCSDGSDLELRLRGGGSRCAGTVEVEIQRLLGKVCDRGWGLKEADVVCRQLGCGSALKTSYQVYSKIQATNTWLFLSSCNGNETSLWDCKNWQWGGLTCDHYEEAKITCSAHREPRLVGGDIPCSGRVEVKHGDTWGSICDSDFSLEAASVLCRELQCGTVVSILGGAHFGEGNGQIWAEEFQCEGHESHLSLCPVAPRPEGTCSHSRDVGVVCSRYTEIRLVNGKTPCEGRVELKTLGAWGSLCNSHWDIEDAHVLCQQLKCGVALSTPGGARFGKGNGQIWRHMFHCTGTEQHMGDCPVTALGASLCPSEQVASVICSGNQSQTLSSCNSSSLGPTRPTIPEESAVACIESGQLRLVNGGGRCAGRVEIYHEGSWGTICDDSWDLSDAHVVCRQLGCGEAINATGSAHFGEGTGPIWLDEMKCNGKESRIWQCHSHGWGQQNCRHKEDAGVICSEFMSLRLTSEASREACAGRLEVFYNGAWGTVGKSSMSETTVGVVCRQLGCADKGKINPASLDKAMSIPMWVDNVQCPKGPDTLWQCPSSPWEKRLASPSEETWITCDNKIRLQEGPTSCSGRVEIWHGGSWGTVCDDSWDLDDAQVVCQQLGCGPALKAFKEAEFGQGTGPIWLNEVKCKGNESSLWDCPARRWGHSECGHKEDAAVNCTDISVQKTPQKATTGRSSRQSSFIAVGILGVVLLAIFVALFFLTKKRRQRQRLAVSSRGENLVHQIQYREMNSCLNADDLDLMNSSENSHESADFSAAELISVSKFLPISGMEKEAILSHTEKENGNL

CC(=O)NC1C(Oc2ccc([N+](=O)[O-])cc2)OC(CO)C(O)C1O (stereo not shown) [AVR-48]
AUC(0-t) [1, 3]: 4222.9 ± 1835.9 ng·h/mL
Cmax [1, 3]: 3885.7 ± 1458.7 ng/mL
Tmax ([1]; 3.00 mg/kg bid iv, Day 1, 0 to 12 hr post dose, male and female lamb plasma): 15 min
C0 (theoretical Cmax, concentration extrapolated to 0 hr) [1, 4]: 5138.8 ng/mL
CL [1, 4]: 13.19 mL/min/kg
T1/2 [1, 4]: 38.4 ± 14.4 min
Tlast [1, 4]: 4.75 h
Vd [1, 4]: 0.6684 ± 0.129 L/kg
plasma concentration 15 minutes after each repeat dosing ([1]; 3.0 mg/kg iv every 12 h for 7 d, lamb plasma): 3886.6 ± 619.7 ng/mL
Cmax ([1]; 3.0 mg/kg/dose iv, lamb plasma, read-out: Cmax): 10.7 µM
Exposure (AUC(0-t)) over the dose range tested ([1]; 0.1-9 mg/kg/dose iv): increased dose-relatedly; also recorded: increased in a dose-related manner
repeat dose Cmax ([1]; iv every 12 h for 7 d, 0.1-9 mg/kg/dose): consistent and dose-dependent
radial alveolar count (RAC) ([2]; 10d, PT lambs, 3.0 mg/kg): significant increase
distal airspace wall thickness ([2]; 10d, PT lambs): significantly thinner
secondary septal volume density ([2]; 10d, PT lambs): significantly higher
radial alveolar count (RAC) ([2]; 90d, FPT lambs, 3.0 mg/kg): significant increase
distal airspace wall thickness ([2]; 90d, FPT lambs): thinner (but not statistically different)
secondary septal volume density ([2]; 90d, FPT lambs): higher in the AVR-48 lambs (but not statistically different)
development of terminal respiratory units (TRUs) ([2]; early-stage and late-stage studies, 3.0 mg/kg): significantly better development
binding to CD163 scavenger receptor (CD163 scavenger receptor): exhibits a binding affinity
CD4+ T-helper cells in mouse spleen (mice): increased
CD8+ T cells in mouse spleen (mice): increased
CD19+ B cells in mouse spleen (mice): increased
CD38+/CD27+ plasma blasts in mouse spleen (mice): increased
IgG in mouse serum (mice): increased
